Experimental data as given in paper PMC3256188, “Novel Nonphosphorylated Peptides with Conserved Sequences Selectively Bind to Grb7 SH2 Domain with Affinity Comparable to Its Phosphorylated Ligand” (PLoS ONE, 2012).
Entries after “also recorded” stand apart in the source; their conditions may differ.

Experiments:
[1] = target: Grb7 SH2 domain; set-up: method as in earlier work; conditions: binding to Grb7 SH2 domain; calorimetric (title of ref 27); read-out: dissociation constant (Kd); cited from earlier work
From the text: Many drugs are designed to target the SH2 domain of Grb7. […] This peptide also serves as a model for chemical drug de ...

[2] = target: T1, GFP-Grb7 SH2 domain and 41-mRLUC-3×Flag complex (Homo sapiens, UniProt Q14451); experiment: Competition immunoprecipitation, GFP-Grb7 SH2 domain and 41-mRLUC-3×Flag complex; format: binding
T1 construct: expressed in transfected cells; host or cells: HEK293T
From the text: To see whether the nonphosphorylated peptide could effectively compete with phosphorylated ligand for binding to the Grb7 SH2 domain, the phosphorylated ligand pY (1180) (DEEYEpY(1180)MNRRR), which was previously shown to interact with the Grb7 SH2 domain [6], and the nonphosphorylated 41-A ligand ([…]), which contains the first twenty-two amino acid-motif close to the N-terminus of peptide 41, were examine for their abilities to interfere with the GFP-Grb7 SH2 domain and 41-mRLUC-3×Flag complex using immunoprecipitation with anti-GFP antibody.
The phosphorylated ligand pY (1180) (DEEYEpY(1180)MNRRR) from the ErbB3 and the nonphosphorylated peptide 41-A ([…] RV) from nonphosphorylated peptide 41 were synthesized by the China Peptides Co., Ltd. The HPLC purification analysis and MS quality analysis reports were obtained.
HEK293T cells were washed 5 times with ice-cold PBS buffer and scraped off the plates into cell lysis buffer (1% Nonidet P-40, 0.02 M TRIS (pH 7.5), 0.15 M sodium chloride, 0.001 M EDTA, 0.5% sodium deoxycholate, 0.1% SDS and 0.001 M PMSF). Lysates were incubated on ice for 5 minutes, vortexed 2 times for 30 seconds each and centrifuged at 12,000 rpm for 15 minutes at 4°C. After centrifuging twice, the supernatant was incubated with anti-Flag antibody (1∶100, M20008M, Abmart, China) for 6–8 h at 4°C. Protein G agarose (40 µL) was added into 1 mL of the above mixture and coupled to the anti-Flag antibody for 3 h at 4°C. The immunoprecipitates were washed 2–3 times with PBS buffer (PH 7.4), and the sediments were diluted with 5×SDS electrophoresis buffer and heated at 97°C for 10 minutes. The proteins were separated by SDS-PAGE and transferred to PVDF membranes (IPVH00010, Millipore, USA). The membranes were incubated with anti-GFP antibody (1∶2000, P30010, Abmart, China) and goat anti-rabbit secondary antibody (1∶4000, M21002, Abmart, China) to identify target proteins. For the competition analyses, the immunoprecipitation complexes were mixed with anti-Flag antibody and different concentrations of the synthesized phosphorylated ligands or the nonphosphorylated ligands. The proteins were separated by SDS-PAGE, and the SH2 domain of Grb7 protein was analyzed using anti-GFP antibody. Western blot analysis was carried out using the Image J [37], the IC50 values were calculated by regression analyses using SPSS 17.0.

[3] = tested on: SK-BR-3 breast cancer cells; experiment: MTS cell proliferation assay; format: cell-based
Procedure: For the cell proliferation assay, the anti-Grb7 antibody (N-20, Santa Cruz Biotechnology, USA) and the anti-Flag antibody (M20008M, Abmart, China) were used for the western blot, and MTS (Promega, USA) was used for the analysis of cell proliferation.
The MTS cell proliferation assay was performed to analyze the proliferation of SK-BR-3 breast cancer cells (Cell culture center of PUMC, China) according to the manufacturer's instructions (Promega, USA). SK-BR-3 cells at 70%–80% confluency were transiently transfected respectively with plasmids of 41-mRLUC-3×Flag or mRLUC-3×Flag and Mega Tran 1.0 (OriGene, USA). Beginning from 12 h after transfection, 400 µg/mL G418 (11811-023, Invitrogen, USA) was used to select for the transfected cells. The u-bottom 96-well microtiter plates (Corning, USA) were seeded with approximately 7.50×10^3 cells per well at 18 h after transfection. […] The absorbance at 492 nm of transfected cells and control DMEM medium was measured separately at 18 h, 24 h, 36 h, 48 h and 60 h after transfection on Synergy4 Multi-Mode Microplates Readers (BioTek, USA). The absorbance was adjusted by differences in the absorbance between cell culture medium and control medium without seeded cells. The data were analyzed by double-factor variance analysis using SPSS 17.0.

[4] = tested on: EYFP-tagged Grb7 SH2 domain; experiment: Bioluminescence Resonance Energy Transfer (BRET) in HEK293T cells; format: cell-based; conditions: 36 h after transfection, EYFP-Grb7 SH2 + mRLUC-tagged peptide, coelenterazine 5.9 µM, eighteen group ratios
From the text: For the BRET assay, the EYFP fragment was generated by PCR amplification. The ErbB3-mRLUC plasmid was constructed by the Beijing Sino Biological Inc. The SH2 domain of Grb7 was fused to the EYFP fragment, and the nonphosphorylated peptides 10 and 41 were fused to the mRLUC fragment. The Grb7 SH2 domain sequence was inserted at the C-terminus of the EYFP tag.
(§1) HEK293T cells at 70%–80% confluency were given fresh DMEM (high glucose) culture medium and transfected with plasmids using the calcium phosphate method. Samples were collected at 36 h after transfection.
In BRET, the Renilla luciferase (mRLUC) is fused to the candidate protein, and the green fluorescent protein mutant (EYFP) is fused to the target protein. Interactions between the two fused proteins bring the luciferase and the green fluorescent protein into close proximity, which promotes resonance energy transfer from mRLUC to EYFP [38]. Then EYFP is […] at 530 nm, and the emission is used to determine the binding between the two interacting proteins. In this study, HEK293T cells were collected at 36 h after transfection, 100 µL of mixed cell suspension was added to the u-bottom 96-well microtiter plates (Corning, USA) before measurement. The measurement of bioluminescence, with rasters of 460/40 nm and 518/20 nm, was performed on Synergy4 Multi-Mode Microplates Readers (BioTek, USA). The BRET reaction was initiated by 5.9 µM coelenterazine (Promega, USA). Data were analyzed by one-factor analysis of variance using SPSS 17.0.

[5] = tested on: Grb7 SH2 domain; experiment: Co-immunoprecipitation from transfected HEK293T cells; format: binding; conditions: HEK293T co-transfected with peptide-mRLUC-3×Flag and EGFP-Grb7 SH2, 36 h; anti-Flag IP, anti-GFP blot
From the text: In the co-immunoprecipitation assay, the mRLUC fragment was generated by PCR amplification. The inserted sequence of the Grb7 SH2 domain was as follows: N- […]-C. This sequence was inserted at the C terminus of the EGFP tag. The sequence of peptide 10 was as follows: N-[…]-C. The sequence of peptide 41 was as follows: N-[…]-C. The sequence of peptide 10CM was as follows: N-[…]-C. The nonphosphorylated peptide and the mRLUC fragment were inserted at the N-terminus of the Flag tag. The mRLUC fragment was fused with the nonphosphorylated peptide so that they could be easily identifiable. The empty vector containing the mRLUC fragment was used as the negative control.
as §1
HEK293T cells were washed 5 times with ice-cold PBS buffer and scraped off the plates into cell lysis buffer (1% Nonidet P-40, 0.02 M TRIS (pH 7.5), 0.15 M sodium chloride, 0.001 M EDTA, 0.5% sodium deoxycholate, 0.1% SDS and 0.001 M PMSF). […] The proteins were separated by SDS-PAGE, and the SH2 domain of Grb7 protein was analyzed using anti-GFP antibody. Western blot analysis was carried out using the Image J [37], the IC50 values were calculated by regression analyses using SPSS 17.0.

T1 sequence (Q14451 425-532, one chain of several): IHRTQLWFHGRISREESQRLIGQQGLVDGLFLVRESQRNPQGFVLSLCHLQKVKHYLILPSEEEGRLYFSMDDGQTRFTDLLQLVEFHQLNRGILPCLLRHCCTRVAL

DEEYEpY(1180)MNRRR [pY (1180), phosphorylated ligand pY (1180) (DEEYEpY(1180)MNRRR) from the ErbB3, reference compound]
Kd [1]: ~1150 nM
interference with binding of the Grb7 SH2 domain to peptide 41 ([2]; 0.0072 mM): did not significantly interfere
interference with binding of the Grb7 SH2 domain to peptide 41 ([2]; 0.036 mM): did not significantly interfere
interference with binding of the Grb7 SH2 domain to peptide 41 ([2]; 0.18 mM): nearly abolished
disruptive effect on the Grb7 SH2 domain/peptide 41 interaction ([2]; Figure 3A, overall, concentration not given): abolished the association between the Grb7 SH2 domain and nonphosphorylated peptide 41
binding affinity to the Grb7 SH2 domain, comparison of 41-A and pY (1180) ([2]; in vitro competition, in words): at least comparable binding affinities to the Grb7 SH2 domain

N-VGTWTTRGPWCPCVAVGIPTQPTTSSEPSPPSNPPWDPGRVLLGRIVWPGLLALGIPTHHQNDTYNSPHAHPNRDP-C [peptide 41, nonphosphorylated peptide with two twenty-two residue motifs, 41-A and 41-B]
adjusted absorbance between transfected cell groups and between time points ([3]; double-factor variance analysis, n = 10, p<0.001, Figure 4B): Statistically significant differences existed in both of groups
BRET luminescence ratio of 530/480 nm [4]: significantly stronger
pull-down of the Grb7 SH2 domain (co-immunoprecipitation) [5]: pulled down the Grb7 SH2 domain; also recorded: co-immunoprecipitated
binding to the Grb7 SH2 domain in the absence of competitor ([2]; in the absence of peptide pY (1180) and peptide 41-A, Figure 3A): could bind to the Grb7 SH2 domain

B1: 41-mRLUC-3×Flag: fusion protein of peptide 41 with mRLUC and 3×Flag, expressed from transfected plasmid (protein)
chain: VGTWTTRGPWCPCVAVGIPTQPTTSSEPSPPSNPPWDPGRVLLGRIVWPGLLALGIPTHHQNDTYNSPHAHPNRDP
modifications: left off: mRLUC, C-terminal, kept | 3×Flag, C-terminal, kept
notes: fusion protein of peptide 41 with mRLUC and 3×Flag, expressed from transfected plasmid
proliferation of transfected SK-BR-3 cells (MTS absorbance) ([3]; beginning from 24 h (measured 18, 24, 36, 48, 60 h after transfection), absorbance 492 nm, vs mRLUC-3×Flag control, p<0.01): significantly slower than that of the mRLUC-3×Flag control group
